Data reported in patent publication US11976072B2, “Diacylglycerol kinase modulating compounds” (priority 2021, dated 2024).

Legend:
[1] = molecular target: human DGKα (Homo sapiens, UniProt P23743); assay: DGKα Biochemical Activity Assay (ADP-Glo); conditions: recombinant DGKα 1 nM, 100 μM ATP, 18:1 DAG/POPS/octylglucoside micelles, 1 hour at 25° C.; geometric mean; read-out: HTBS DGKa 1X ATP KM IC50;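 further: luminescent detection of ADP produced as DGKα phosphorylates DAG to phosphatidic acid, IC50 from four-parameter nonlinear curve fit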
Sequence of human DGKα (P23743 whole entry): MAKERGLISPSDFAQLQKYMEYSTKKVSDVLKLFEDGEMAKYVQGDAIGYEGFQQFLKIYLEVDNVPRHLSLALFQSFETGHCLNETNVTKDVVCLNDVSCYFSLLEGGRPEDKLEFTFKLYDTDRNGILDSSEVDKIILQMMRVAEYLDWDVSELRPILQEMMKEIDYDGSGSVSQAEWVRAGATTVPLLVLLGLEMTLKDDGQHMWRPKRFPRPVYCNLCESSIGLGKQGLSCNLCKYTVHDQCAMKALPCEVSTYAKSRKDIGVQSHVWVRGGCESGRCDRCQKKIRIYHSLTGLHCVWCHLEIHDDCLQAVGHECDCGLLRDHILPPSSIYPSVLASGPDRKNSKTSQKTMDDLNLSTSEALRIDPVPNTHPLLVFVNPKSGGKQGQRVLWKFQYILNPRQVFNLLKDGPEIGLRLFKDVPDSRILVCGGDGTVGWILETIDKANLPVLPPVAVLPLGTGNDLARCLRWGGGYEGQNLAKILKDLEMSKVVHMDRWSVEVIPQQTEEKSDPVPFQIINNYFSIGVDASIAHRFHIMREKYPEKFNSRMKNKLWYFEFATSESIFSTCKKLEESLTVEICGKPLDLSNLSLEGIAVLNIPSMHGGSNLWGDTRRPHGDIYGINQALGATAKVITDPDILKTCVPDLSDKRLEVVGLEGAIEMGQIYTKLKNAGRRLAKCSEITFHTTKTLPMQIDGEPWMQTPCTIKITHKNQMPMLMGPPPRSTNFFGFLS

[2] = tested on: Jurkat NFκB-luciferase cells; assay: Jurkat NFκB-Luciferase Assay; assay type: cell-based; conditions: Homo sapiens; Jurkat NFκB-luciferase cells activated with anti-CD3 antibody (OKT3), 2.5 hrs at 37° C.; geometric mean; read-out: DGK NFKb Luciferase EC50
Procedure, shortened: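 Luminescence from One-Glo Ex, read 7 min post-addition, reports NFκB activation in Jurkat luciferase reporter cells. Cells, diluted to 1 million cells/ml in 10% FBS RPMI, were dispensed onto plates holding compound and washed, pre-bound antibody.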

| SMILES | IC50 [1] [nM] | EC50 [2] [nM] |
| --- | --- | --- |
| CC(C)(C#Cc1cc(F)cc(N(CC(F)F)c2nc3nncn3c3c(Cl)cc(F)cc23)c1)C(F)F [Example 46, 9-chloro-N-[3-(4,4-difluoro-3,3-dimethyl-but-1-ynyl)-5-fluoro-phenyl]-N-(2,2-difluoroethyl)-7-fluoro-[1,2,4]triazolo[4,3-a]quinazolin-5-amine] | 15.6 | 1.75 |
| CC1(C#Cc2cc(N(CC(F)F)c3nc4nncn4c4ccc(F)c(F)c34)ccn2)CC1 [Example 94, N-(2,2-difluoroethyl)-6,7-difluoro-N-(2-((1-methylcyclopropyl)ethynyl)pyridin-4-yl)-[1,2,4]triazolo[4,3-a]quinazolin-5-amine] | 4.3 | 2.33 |
| Cc1cc(F)cc2c(N(CC(F)F)c3cc(F)cc(C#CC(C)(C)O)c3)nc3nncn3c12 [Example 105] | 30.6 | 27.1 |
| Fc1cc(Cl)c2c(c1)c(N1CCCc3c(C#CC4(C(F)(F)F)CC4)cccc31)nc1nncn12 [Example 38, 9-chloro-7-fluoro-5-[5-[2-[1-(trifluoromethyl)cyclopropyl]ethynyl]-3,4-dihydro-2H-quinolin-1-yl]-[1,2,4]triazolo[4,3-a]quinazoline] | 126 | 3.95 |
| Cc1nnc2nc(N3CCCCc4c(C#CC5(C)CC5)cncc43)c3cc(F)ccc3n12 [Example 5, 7-fluoro-1-methyl-5-(6-((1-methylcyclopropyl)ethynyl)-2,3,4,5-tetrahydro-1H-pyrido[3,4-b]azepin-1-yl)-[1,2,4]triazolo[4,3-a]quinazoline] | 14.5 | 1.19 |
| Cc1nnc2nc(N3CCCCc4c(C#CC5(C)COC5)cccc43)c3c(F)cccc3n12 [Example 193] | 2.85 | 0.871 |
| Cc1nnc2nc(N(CC(F)F)c3ccnc(C#CC4(C(F)(F)F)CC4)c3F)c3cc(F)ccc3n12 [Example 89] | 5.41 | 4.61 |
